Article doi:10.1101/2025.08.13.670122v1 (bioRxiv, 2025)

Tests used:
AT1R [1] = target: T1, AT1R (Homo sapiens, UniProt P30556); assay: Rho BRET sensor (PKN-RBD-RlucII/rGFP-CAAX) in ΔG12/13 HEK293 cells expressing AT1R; format: cell-based; set-up: expressed in transfected cells; host or cells: HEK293 cells, transient PEI transfection; details: for Emax Rho Gαq/11 (% AngII): ΔG12/13 HEK293/AT1R, Rho BRET sensor, response at 10 μM, normalised to AngII; for EC50: ΔG12/13 HEK293 cells expressing AT1R, Rho (PKN-RBD-RlucII/rGFP-CAAX) BRET sensor, 3 min stimulation, mean ± SEM of at least three to five independent experiments, SEM, read-out: EC50 Rho Gαq/11
T1 sequence (P30556 1-359): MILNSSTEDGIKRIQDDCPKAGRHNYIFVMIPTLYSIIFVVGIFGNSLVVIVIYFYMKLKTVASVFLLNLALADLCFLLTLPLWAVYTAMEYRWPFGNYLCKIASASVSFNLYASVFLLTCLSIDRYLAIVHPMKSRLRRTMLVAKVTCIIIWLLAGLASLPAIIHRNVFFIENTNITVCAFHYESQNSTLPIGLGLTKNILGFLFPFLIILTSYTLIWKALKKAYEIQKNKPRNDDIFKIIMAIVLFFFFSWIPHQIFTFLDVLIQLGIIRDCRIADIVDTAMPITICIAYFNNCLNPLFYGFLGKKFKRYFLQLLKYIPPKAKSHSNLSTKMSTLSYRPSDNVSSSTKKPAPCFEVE
Excerpt: We utilized a clonal cell line HEK293, referred to hereafter as HEK293 cells, which has been previously described.[7],[8] As a gracious gift from A. Inoue (Tohoku University, Sendai, Miyagi, Japan), CRISPR Gαq/11 and Gα12/13 knockout cell lines (ΔGq/11 and ΔG12/13, respectively), were derived as previously explained.[48] In brief, a CRISPR-Cas9 system was used to target either GNAQ and GNA11 or GNA12 and GNA13 genes in HEK293T cells simultaneously to generate the Gαq/11 and Gα12/13 knockout cell lines. For the production of adenovirus, we utilized HEK293A cells. All cells were grown in DMEM supplemented with 10% FBS and Penicillin-Streptomycin-L-Glutamine (10000 IU penicillin, 10000 µg/mL Streptomycin, 200 mM L-Glutamine) at 37°C in T175 flasks under a 5% CO2 humidified chamber. Periodic testing was carried out for mycoplasma contamination (ABM™, Mycoplasma PCR Detection kit). For all biosensors used, cells underwent transfection with the PEI reagent, employing a PEI:DNA ratio of 3:1. For the Gαq biosensor, HEK293 cells were transfected with the plasmids coding for Gαq-RLucII (120 ng), Gβ1 (3000 ng), Gγ1-GFP10 (3000 ng), human AT1 (3000 ng) and Salmon sperm DNA (SSD) (880 ng). For the β-arrestin2 recruitment assay, HEK293 cells were transfected with the plasmids coding for 120 ng β-arrestin-2-RLucII, 3000 ng AT1, 3000 ng rGFP-CAAX, and 3880 ng SSD. For the measurement of PKC, HEK293 cells were transfected with 3000 ng AT1, 600 ng PKC-c1b, and 6400 ng SSD. […] 100 µL of the cell/DNA mixture was added to white 96-well plates and incubated at 37°C at 5% CO2 for 48 h. For the Rho assay, ΔG12/13 cells were seeded at a density of 9,000 cells per well in poly-ornithine-coated white 96-well plates and transfected the following day. In brief, 1 μg of total DNA in 100 μL of PBS was mixed with 100 μL of PBS containing 3 μL of 1 mg/mL PEI. For Rho signaling, 150 ng of AT1R DNA with 25 ng of PKN-RBD-RlucII [8], and 100 ng of rGFP-CAAX were used. Empty pcDNA was used to reach 1 µg of the total DNA amount in 100 μL of PBS. The DNA was then mixed with 100 μL of PBS containing 3 μL of 1 mg/mL PEI. After a 20-min incubation, the DNA/PEI complexes were dispensed into cells in 96-well plates (15 µL/well), and the experiment was carried out 48 h post-transfection.
On the day of the experiment, each well was washed with 80 µL of Tyrode’s buffer (140 mM NaCl, 2.7 mM KCl, 1 mM CaCl2, 12 mM NaHCO3, 5.6 mM D-glucose, 0.5 mM MgCl2, 0.37 mM NaH2PO4, 25 mM Hepes (pH 7.4)). This was followed by incubation for 1 h in Tyrode’s buffer at room temperature. […] Cells were then stimulated with increasing doses of the indicated ligand, and BRET signals were measured using a Tristar2 (Berthold) microplate reader 10 min later. […] BRET signals were then measured using a Synergy2 (BioTek) microplate reader. […]

AT1R [2] = target: T1, AT1R; assay: 125I-AngII displacement binding on HEK293 cells expressing human AT1R; set-up: expressed in transfected cells; host or cells: HEK293 cells, transient; freeze-thaw broken cells; details: SEM; read-out: Ki (apparent affinity)
Experimental: HEK293 cells, transiently expressing the human AT1R (3 million cells transfected with 4 μg of AT1R plasmid), were washed once with PBS and submitted to one freeze-thaw cycle. […] Binding assays were carried out in 96-well plates. […] The incubation mixtures were filtered through binding plates (MultiScreen HTS, Merck Millipore, Cork, Ireland) and preincubated with the washing buffer for 1 h at 4°C to remove unbound ligands. The filtered membranes were washed thrice with 200 µL cold binding buffer (4°C). The filters with membranes were retrieved with punch tips (Filter Plates Punch Tips, Merck Millipore, Cork, Ireland). […] The dissociation constant (Ki value) was determined from the IC50 using the Cheng-Prusoff equation and presented as a mean ± SEM of three independent experiments, each conducted in duplicate. VSMC cells were seeded at 80,000 cells per well in poly-ornithine-coated 24-wells. […] The next day, cells were washed thrice with ice-cold PBS, solubilized in 0.5 mL of 0.2 M NaOH/0.05% SDS, and bound radioactivity was counted using a PerkinElmer Wizard 1470 automatic γ-counter. Protein quantities were evaluated using a Bradford assay.

Row | Compound | Emax Rho Gαq/11 (% AngII) (AT1R [1]) | EC50 (AT1R [1]) | Ki (AT1R [2])
1 | CC[C@H](C)[C@H](NC(=O)[C@H](Cc1ccc(O)cc1)NC(=O)[C@@H](NC(=O)[C@H](CCCNC(=N)N)NC(=O)[C@@H](N)CC(=O)O)C(C)C)C(=O)N[C@@H](Cc1c[nH]cn1)C(=O)N1CCC[C@H]1C(=O)N[C@@H](Cc1ccc(OC)cc1)C(=O)O [compound 11] | 105 % AngII | 2.3 ± 0.5 nM | 0.23 ± 0.18 nM
2 | CC[C@H](C)[C@H](NC(=O)[C@H](Cc1ccc(O)cc1)NC(=O)[C@@H](NC(=O)[C@H](CCCNC(=N)N)NC(=O)[C@@H](N)CC(=O)O)C(C)C)C(=O)N[C@@H](Cc1c[nH]cn1)C(=O)N1CCC[C@H]1C(=O)N[C@@H](Cc1ccc(OCc2ccccc2)cc1)C(=O)O [compound 12] | 47 % AngII | 21 ± 5 nM | 1.4 ± 0.2 nM
